Laboratory results: US10039764B2, “Treatment and diagnosis of cancer and precancerous conditions using PDE10A inhibitors and methods to measure PDE10A expression” (University of South Alabama, priority 2013, dated 2018)
pIC50: −log10 of the molar value. Where two headings read alike, the source gives them in different places.

Key:
[1] = tested on: HCT116 human colon tumor cells; experiment: Growth assay (Cell Titer Glo), HCT116; assay type: cell-based; details: Homo sapiens, HCT-116
From the text: (§1) All cell lines comprising the NCI-60 cancer cell panel were obtained from the NCI Developmental Therapeutics Program and maintained under the same standard conditions. The human normal colonocyte (NCM460) cell line was purchased from Incell (San Antonio, Tex.) and grown according to the manufacturer's specifications. The human colon adenoma cell line, LT97, was a gift from Dr. Brigitte Marian (Medical University Vienna, Austria) and grown according to the provider's specifications. Human mammary epithelial cells (HMEC) were purchased from Lonzo and grown using culture conditions as recommended by the supplier.
(§2) Ninety-six (96)-well microtiter plates were seeded at a density of 5,000 cells per well. For drug treatment, cells were treated with compounds or vehicle control, and incubated at 37° C. for 72 hours. For siRNA assays, cells were transfected with siRNA under the same conditions described above. The effect of treatment with inhibitors or siRNA knockdown of PDE10A on growth was measured using the Cell Titer Glo Assay (Promega), which measures viable cell number based on ATP content.
(§3) Effect of various PDE isozyme inhibitors on the growth of human colon tumor cells HCT116 and HT29 was determined using the Cell Titer Glo Cell Viability Assay (Promega) following 72 hours of treatment.
(§4) The effect of the inhibitors on the growth of human colon tumor and normal colonocytes was measured using the Cell Titer Glo Cell Viability Assay (Promega) as described above. The inhibitory potency toward purified recombinant phosphodiesterase enzymes was measured using the IMAP Phosphodiesterase Assay as described in the Materials and Methods section.

[2] = tested on: HT29 human colon tumor cells; experiment: Growth assay (Cell Titer Glo), HT29; assay type: cell-based; details: Homo sapiens, HT-29
From the text: as §1, §2, §3, §4

[3] = tested on: SW480 human colon tumor cells; experiment: Growth assay (Cell Titer Glo), SW480; assay type: cell-based
From the text: as §1, §2, §4

[4] = tested on: normal colonocytes (NCM460); experiment: Growth assay (Cell Titer Glo), normal colonocytes NCM460; assay type: cell-based, human; details: for pIC50: Homo sapiens, NCM460
From the text: as §1, §2, §4

PDE10A = molecular target: T1, PDE10A (Homo sapiens, UniProt Q9Y233); experiment: IMAP fluorescence polarization PDE assay, PDE10A; assay type: biochemical; details: recombinant enzyme
T1 construct: other: substrate cGMP; recombinant enzyme; other: substrate cAMP
Experimental: (§5) MY5445 was purchased from EMD Millipore. […] Recombinant PDE enzymes were purchased from BPS Biosciences. DMSO was used as the vehicle for testing effects of all compounds.
(§6) PDE enzymatic activity was measured using IMAP fluorescence polarization assay (Molecular Devices. Inc.). […] For experiments involving cell extracts, 2×10^5 cells per well were plated on a six-well tissue culture plate 72 hours prior to cell lysis.
as §4

PDE1A = molecular target: T2, PDE1A (Homo sapiens, UniProt P54750); experiment: IMAP fluorescence polarization PDE assay, PDE1A; assay type: biochemical
T2 construct: purchased BPS Biosciences
Experimental: as §5, §6, §4

PDE2A = molecular target: T3, PDE2A (Homo sapiens, UniProt O00408); experiment: IMAP fluorescence polarization PDE assay, PDE2A; assay type: biochemical
T3 construct: purchased BPS Biosciences
Experimental: as §5, §6, §4

PDE3A = molecular target: T4, PDE3A (Homo sapiens, UniProt Q14432); experiment: IMAP fluorescence polarization PDE assay, PDE3A; assay type: biochemical
T4 construct: purchased BPS Biosciences
Experimental: as §5, §6, §4

PDE3B = molecular target: T5, PDE3B (Homo sapiens, UniProt Q13370); experiment: IMAP fluorescence polarization PDE assay, PDE3B; assay type: biochemical; details: substrate cGMP; read-out: Phosphodiesterase Inhibition PDE3B cGMP IC50
T5 construct: purchased BPS Biosciences
Experimental: as §5, §6, §4

PDE4B = molecular target: T6, PDE4B (Homo sapiens, UniProt Q07343); experiment: IMAP fluorescence polarization PDE assay, PDE4B; assay type: biochemical; details: substrate cAMP; read-out: Phosphodiesterase Inhibition PDE4B cAMP IC50
T6 construct: purchased BPS Biosciences
Experimental: as §5, §6, §4

PDE5A = molecular target: T7, PDE5A (Homo sapiens, UniProt O76074); experiment: IMAP fluorescence polarization PDE assay, PDE5A; assay type: biochemical; details: substrate cGMP; read-out: Phosphodiesterase Inhibition PDE5A (PDE5) cGMP IC50
T7 construct: purchased BPS Biosciences
Experimental: as §5, §6, §4

PDE9A = molecular target: T8, PDE9A (Homo sapiens, UniProt O76083); experiment: IMAP fluorescence polarization PDE assay, PDE9A; assay type: biochemical; details: substrate cGMP; read-out: Phosphodiesterase Inhibition PDE9A cGMP IC50
T8 construct: purchased BPS Biosciences
Experimental: as §5, §6, §4

PDE11A = molecular target: T9, PDE11A (Homo sapiens, UniProt Q9HCR9); experiment: IMAP fluorescence polarization PDE assay, PDE11A; assay type: biochemical
T9 construct: purchased BPS Biosciences
Experimental: as §5, §6, §4

T2 sequence (P54750 whole entry): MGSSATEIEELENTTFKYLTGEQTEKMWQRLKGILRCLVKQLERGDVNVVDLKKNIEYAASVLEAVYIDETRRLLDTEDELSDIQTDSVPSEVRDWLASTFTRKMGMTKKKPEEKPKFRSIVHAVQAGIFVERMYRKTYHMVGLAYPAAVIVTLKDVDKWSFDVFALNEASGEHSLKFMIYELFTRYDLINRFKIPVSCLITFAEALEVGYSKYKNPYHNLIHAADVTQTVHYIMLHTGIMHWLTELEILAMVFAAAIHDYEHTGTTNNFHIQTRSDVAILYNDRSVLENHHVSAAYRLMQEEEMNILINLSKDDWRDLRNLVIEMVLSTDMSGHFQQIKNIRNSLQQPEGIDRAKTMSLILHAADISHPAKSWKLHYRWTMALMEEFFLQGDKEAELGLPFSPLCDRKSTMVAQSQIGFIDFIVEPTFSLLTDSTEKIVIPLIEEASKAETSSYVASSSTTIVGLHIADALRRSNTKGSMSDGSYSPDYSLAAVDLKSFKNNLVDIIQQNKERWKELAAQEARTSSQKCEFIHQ
T1 sequence (Q9Y233 290-1055 limits assumed): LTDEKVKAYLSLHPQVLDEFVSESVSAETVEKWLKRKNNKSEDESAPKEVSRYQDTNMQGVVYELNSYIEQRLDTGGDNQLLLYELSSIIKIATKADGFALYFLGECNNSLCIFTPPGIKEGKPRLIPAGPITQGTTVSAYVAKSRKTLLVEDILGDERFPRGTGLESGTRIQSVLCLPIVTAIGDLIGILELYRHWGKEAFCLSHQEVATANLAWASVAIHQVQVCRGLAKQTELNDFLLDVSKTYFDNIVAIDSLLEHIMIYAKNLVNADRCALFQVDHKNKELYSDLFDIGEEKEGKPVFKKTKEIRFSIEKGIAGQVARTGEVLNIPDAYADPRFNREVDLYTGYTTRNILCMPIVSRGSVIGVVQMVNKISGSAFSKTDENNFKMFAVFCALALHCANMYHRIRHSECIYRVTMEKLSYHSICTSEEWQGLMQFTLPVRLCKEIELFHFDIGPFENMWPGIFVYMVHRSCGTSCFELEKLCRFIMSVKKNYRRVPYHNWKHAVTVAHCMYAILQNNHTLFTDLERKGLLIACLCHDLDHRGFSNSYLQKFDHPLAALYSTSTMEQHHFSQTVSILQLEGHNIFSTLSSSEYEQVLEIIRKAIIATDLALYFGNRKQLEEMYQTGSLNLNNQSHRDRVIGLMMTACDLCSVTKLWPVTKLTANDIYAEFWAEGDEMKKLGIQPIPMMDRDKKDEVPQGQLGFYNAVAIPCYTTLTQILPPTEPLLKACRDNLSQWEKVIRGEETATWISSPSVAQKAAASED
T9 sequence (Q9HCR9 whole entry): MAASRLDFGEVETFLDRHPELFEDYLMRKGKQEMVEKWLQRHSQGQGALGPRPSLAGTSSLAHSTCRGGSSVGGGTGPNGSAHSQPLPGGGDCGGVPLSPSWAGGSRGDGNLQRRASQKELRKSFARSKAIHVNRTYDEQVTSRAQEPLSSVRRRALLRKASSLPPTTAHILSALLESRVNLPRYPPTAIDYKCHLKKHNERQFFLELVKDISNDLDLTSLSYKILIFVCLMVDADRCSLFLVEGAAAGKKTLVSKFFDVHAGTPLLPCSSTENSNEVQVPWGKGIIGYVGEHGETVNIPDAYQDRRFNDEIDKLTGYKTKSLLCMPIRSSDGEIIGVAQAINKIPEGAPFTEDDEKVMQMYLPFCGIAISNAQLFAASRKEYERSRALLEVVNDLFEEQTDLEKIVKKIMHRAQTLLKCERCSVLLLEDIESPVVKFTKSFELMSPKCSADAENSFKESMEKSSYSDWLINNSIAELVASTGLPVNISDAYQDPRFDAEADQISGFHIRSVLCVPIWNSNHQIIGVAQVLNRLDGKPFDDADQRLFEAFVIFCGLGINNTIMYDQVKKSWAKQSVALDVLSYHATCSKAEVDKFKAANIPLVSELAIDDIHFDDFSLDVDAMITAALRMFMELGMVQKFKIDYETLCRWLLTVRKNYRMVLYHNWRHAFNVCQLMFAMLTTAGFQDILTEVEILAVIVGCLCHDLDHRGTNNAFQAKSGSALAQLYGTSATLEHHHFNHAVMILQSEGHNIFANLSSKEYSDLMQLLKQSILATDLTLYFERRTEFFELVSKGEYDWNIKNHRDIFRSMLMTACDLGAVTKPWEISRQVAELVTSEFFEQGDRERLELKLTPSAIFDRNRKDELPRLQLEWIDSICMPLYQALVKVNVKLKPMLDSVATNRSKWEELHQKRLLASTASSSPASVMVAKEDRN
T3 sequence (O00408 whole entry): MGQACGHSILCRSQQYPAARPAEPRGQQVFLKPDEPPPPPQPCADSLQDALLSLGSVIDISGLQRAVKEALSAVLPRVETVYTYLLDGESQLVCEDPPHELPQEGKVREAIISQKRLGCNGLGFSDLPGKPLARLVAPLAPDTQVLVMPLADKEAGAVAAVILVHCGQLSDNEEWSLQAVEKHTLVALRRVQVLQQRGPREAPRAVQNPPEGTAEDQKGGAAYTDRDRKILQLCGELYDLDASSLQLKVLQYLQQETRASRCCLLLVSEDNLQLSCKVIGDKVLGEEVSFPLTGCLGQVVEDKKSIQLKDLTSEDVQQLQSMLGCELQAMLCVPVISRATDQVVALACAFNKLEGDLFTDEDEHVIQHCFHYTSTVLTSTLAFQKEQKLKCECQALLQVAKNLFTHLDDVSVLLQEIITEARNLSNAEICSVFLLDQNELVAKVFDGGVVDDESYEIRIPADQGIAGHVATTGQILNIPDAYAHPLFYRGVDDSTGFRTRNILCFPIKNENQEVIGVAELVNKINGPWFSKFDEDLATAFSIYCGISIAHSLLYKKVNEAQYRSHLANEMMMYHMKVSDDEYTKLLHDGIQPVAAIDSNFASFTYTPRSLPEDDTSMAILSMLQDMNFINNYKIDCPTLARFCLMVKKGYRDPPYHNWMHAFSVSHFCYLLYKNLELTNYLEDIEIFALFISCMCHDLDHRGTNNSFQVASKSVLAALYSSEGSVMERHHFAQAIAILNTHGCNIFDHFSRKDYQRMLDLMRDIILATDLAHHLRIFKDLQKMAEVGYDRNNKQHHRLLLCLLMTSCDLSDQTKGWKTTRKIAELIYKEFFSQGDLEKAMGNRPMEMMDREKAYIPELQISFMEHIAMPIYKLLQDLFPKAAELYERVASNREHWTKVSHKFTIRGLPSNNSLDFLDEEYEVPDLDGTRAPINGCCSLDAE
T4 sequence (Q14432 whole entry): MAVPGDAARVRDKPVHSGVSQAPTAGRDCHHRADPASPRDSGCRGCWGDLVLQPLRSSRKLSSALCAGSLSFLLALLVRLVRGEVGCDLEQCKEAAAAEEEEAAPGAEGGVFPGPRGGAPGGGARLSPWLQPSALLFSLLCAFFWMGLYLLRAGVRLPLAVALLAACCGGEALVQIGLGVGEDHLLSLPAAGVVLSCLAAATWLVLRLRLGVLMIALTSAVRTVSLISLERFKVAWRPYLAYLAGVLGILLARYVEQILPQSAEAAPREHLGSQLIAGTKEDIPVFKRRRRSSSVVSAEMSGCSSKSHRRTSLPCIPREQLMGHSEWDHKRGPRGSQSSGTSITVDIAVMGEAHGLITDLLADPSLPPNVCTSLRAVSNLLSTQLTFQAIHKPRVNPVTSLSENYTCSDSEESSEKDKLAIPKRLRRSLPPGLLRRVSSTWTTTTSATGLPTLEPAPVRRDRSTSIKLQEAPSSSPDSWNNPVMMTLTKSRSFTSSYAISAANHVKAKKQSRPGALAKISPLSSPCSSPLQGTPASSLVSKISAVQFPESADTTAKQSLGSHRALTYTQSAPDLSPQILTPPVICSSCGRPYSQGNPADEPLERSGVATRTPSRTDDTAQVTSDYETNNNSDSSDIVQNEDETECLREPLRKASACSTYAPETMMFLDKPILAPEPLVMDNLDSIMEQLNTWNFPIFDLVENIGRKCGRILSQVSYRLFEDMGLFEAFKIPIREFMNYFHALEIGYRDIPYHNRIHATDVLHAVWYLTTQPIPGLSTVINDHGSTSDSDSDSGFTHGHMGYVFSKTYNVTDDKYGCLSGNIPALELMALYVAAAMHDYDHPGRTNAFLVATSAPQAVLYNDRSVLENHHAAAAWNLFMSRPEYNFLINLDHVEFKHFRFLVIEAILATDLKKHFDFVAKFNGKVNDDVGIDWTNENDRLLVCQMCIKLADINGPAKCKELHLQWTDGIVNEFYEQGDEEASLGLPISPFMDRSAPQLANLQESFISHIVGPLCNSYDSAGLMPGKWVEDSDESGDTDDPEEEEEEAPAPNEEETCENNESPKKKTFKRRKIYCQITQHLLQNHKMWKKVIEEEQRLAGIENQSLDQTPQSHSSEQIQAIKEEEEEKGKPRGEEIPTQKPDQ
T6 sequence (Q07343 whole entry): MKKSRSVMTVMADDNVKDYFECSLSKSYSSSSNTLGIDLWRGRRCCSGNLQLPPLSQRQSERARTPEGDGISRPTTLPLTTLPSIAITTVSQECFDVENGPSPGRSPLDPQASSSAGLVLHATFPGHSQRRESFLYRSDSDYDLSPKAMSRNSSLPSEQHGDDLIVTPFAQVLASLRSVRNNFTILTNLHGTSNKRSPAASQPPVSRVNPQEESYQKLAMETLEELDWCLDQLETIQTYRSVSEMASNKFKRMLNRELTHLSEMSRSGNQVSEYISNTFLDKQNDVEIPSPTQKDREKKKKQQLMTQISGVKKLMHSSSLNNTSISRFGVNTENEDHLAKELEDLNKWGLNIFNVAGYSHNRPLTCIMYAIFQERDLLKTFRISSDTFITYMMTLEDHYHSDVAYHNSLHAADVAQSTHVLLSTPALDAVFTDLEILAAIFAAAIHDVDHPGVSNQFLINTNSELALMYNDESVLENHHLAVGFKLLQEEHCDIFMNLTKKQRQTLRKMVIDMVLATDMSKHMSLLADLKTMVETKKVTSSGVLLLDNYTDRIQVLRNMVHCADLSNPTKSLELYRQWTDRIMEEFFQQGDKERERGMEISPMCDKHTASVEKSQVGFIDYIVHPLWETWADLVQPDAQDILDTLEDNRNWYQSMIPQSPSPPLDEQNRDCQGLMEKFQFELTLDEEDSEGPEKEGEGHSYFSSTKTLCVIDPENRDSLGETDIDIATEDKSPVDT

COc1cc2ncnc(N3CC[C@@H](Oc4cnc5ccccc5n4)C3)c2cc1OC [PQ-10, (R)-6,7-dimethoxy-4-{3-(quinoxalin-2-yloxy)pyrrolidin-1-yl}quinazoline]
pIC50 ([1]; 72 hours of treatment, FIG. 11, read-out: IC50, growth of HCT116 colon tumor cells): 6.54 | pIC50 ([1]; PDE10 Inhibitors table, read-out: Growth Inhibition IC50, HCT-116): 6.70 | pIC50 ([2]; 72 hours of treatment, FIG. 11, read-out: IC50, growth of HT29 colon tumor cells): 6.89 | pIC50 ([2]; PDE10 Inhibitors table, read-out: Growth Inhibition IC50, HT-29): 6.71 | pIC50 ([3]; 72 hours of treatment, FIG. 11C, read-out: IC50, growth of SW-480 colon tumor cells): 6.66 | pIC50 ([3]; PDE10 Inhibitors table, read-out: Growth Inhibition IC50, SW-480): 6.70 | pIC50 ([4]; 72 hours of treatment, FIG. 11, read-out: IC50, growth of normal colonocytes (NCM460)): 5.08 | pIC50 ([4]; PDE10 Inhibitors table, read-out: Growth Inhibition IC50, NCM-460): < 5.30 | normal colonocytes (NCM460) less sensitive than colon tumor cell lines ([4]; NCM460 vs HCT116, SW-480 and HT29): approximately 40 times | pIC50 (PDE10A; Phosphodiesterase Inhibition PDE10A cAMP IC50, substrate cAMP): 8.27 | pIC50 (PDE10A; Phosphodiesterase Inhibition PDE10A cGMP IC50, substrate cGMP): 8.41 | pIC50 (PDE1A; substrate cAMP, read-out: Phosphodiesterase Inhibition PDE1A cAMP IC50): 4.53 | pIC50 (PDE1A; substrate cGMP, read-out: Phosphodiesterase Inhibition PDE1A cGMP IC50): 5.06 | pIC50 (PDE2A; substrate cAMP, read-out: Phosphodiesterase Inhibition PDE2A cAMP IC50): 5.15 | pIC50 (PDE2A; substrate cGMP, read-out: Phosphodiesterase Inhibition PDE2A cGMP IC50): 5.43 | pIC50 (PDE3A; substrate cAMP, read-out: Phosphodiesterase Inhibition PDE3A cAMP IC50): 6.33 | pIC50 (PDE3A; substrate cGMP, read-out: Phosphodiesterase Inhibition PDE3A cGMP IC50): 6.68 | pIC50 (PDE3B): 6.56 | pIC50 (PDE4B): 4.75 | pIC50 (PDE5A): 5.74 | pIC50 (PDE9A): < 3.70 | pIC50 (PDE11A; substrate cAMP, read-out: Phosphodiesterase Inhibition PDE11A cAMP IC50): 4.52 | pIC50 (PDE11A; substrate cGMP, read-out: Phosphodiesterase Inhibition PDE11A cGMP IC50): 4.88
